Laboratory results as given in ChEMBL document CHEMBL1201862, “PubChem BioAssay data set” (2004).
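Briefly, cells in 96-well plates were exposed to five compound concentrations for 48 h, and endpoints were estimated by linear interpolation. Abbreviation: GI50, concentration required for 50% inhibition of growth.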 Calls of active or inactive are those of the source. Cut-off read from the data, not from the text of the source: active = GI50 up to about 1.1 µM and inactive = higher.

Legend:
Assay in all cases: NCI tumour cell line growth inhibition, 48 h
CCRF-CEM = system: CCRF-CEM
HCT-116 = system: HCT-116
HOP-92 = system: HOP-92
K562 = system: K562
MCF7 = system: MCF7
NCI-H23 = system: NCI-H23
NCI-H460 = system: NCI-H460
OVCAR-3 = system: OVCAR-3
OVCAR-4 = system: OVCAR-4
RPMI-8226 = system: RPMI-8226
RXF 393 = system: RXF 393
SF-539 = system: SF-539
SK-MEL-5 = system: SK-MEL-5
SK-OV-3 = system: SK-OV-3
SN12C = system: SN12C
SNB-19 = system: SNB-19
SW-620 = system: SW-620
U-251 = system: U-251
UACC-62 = system: UACC-62
Malme-3M = system: Malme-3M

SMILES	GI50 (CCRF-CEM)	GI50 (HCT-116)	GI50 (HOP-92)	GI50 (K562)	GI50 (MCF7)	GI50 (NCI-H23)	GI50 (NCI-H460)	GI50 (OVCAR-3)	GI50 (OVCAR-4)	GI50 (RPMI-8226)	GI50 (RXF 393)	GI50 (SF-539)	GI50 (SK-MEL-5)	GI50 (SK-OV-3)	GI50 (SN12C)	GI50 (SNB-19)	GI50 (SW-620)	GI50 (U-251)	GI50 (UACC-62)	GI50 (Malme-3M)
NC(CCCCCCCCCCP(=O)(O)O)C(=O)O (stereo unspecified)	> 100 µM (inactive)	> 100 µM (inactive)	> 100 µM (inactive)	> 100 µM (inactive)	> 100 µM (inactive)	> 100 µM (inactive)	> 100 µM (inactive)	> 100 µM (inactive)	> 100 µM (inactive)	> 100 µM (inactive)	> 100 µM (inactive)	> 100 µM (inactive)	> 100 µM (inactive)	> 100 µM (inactive)	> 100 µM (inactive)	> 100 µM (inactive)	> 100 µM (inactive)	> 100 µM (inactive)	> 100 µM (inactive)	–
CC(C)(C)[Si](C)(C)OCC1OC(n2cnc3c(N)ncnc32)CC1OS(C)(=O)=O (stereo unspecified)	> 100 µM (inactive)	72.1 µM (inactive)	0.506 µM (active)	> 100 µM (inactive)	> 100 µM (inactive)	51.1 µM (inactive)	> 100 µM (inactive)	27.4 µM (inactive)	> 100 µM (inactive)	> 100 µM (inactive)	25.6 µM (inactive)	–	–	> 100 µM (inactive)	> 100 µM (inactive)	> 100 µM (inactive)	> 100 µM (inactive)	> 100 µM (inactive)	42.1 µM (inactive)	> 100 µM (inactive)
COC(=O)C1=C(C)N2CCOC2(C)C(C(=O)OC)C1c1ccc[nH]1 (stereo unspecified)	> 100 µM (inactive)	> 100 µM (inactive)	> 100 µM (inactive)	> 100 µM (inactive)	–	> 100 µM (inactive)	> 100 µM (inactive)	> 100 µM (inactive)	> 100 µM (inactive)	> 100 µM (inactive)	> 100 µM (inactive)	> 100 µM (inactive)	> 100 µM (inactive)	–	–	> 100 µM (inactive)	> 100 µM (inactive)	–	> 100 µM (inactive)	–
O=C1OC(c2ccccc2)=N/C1=C\c1ccc(Oc2ccc(Cl)c(Cl)c2)cc1	23.1 µM (inactive)	33.2 µM (inactive)	55 µM (inactive)	24.4 µM (inactive)	–	35.4 µM (inactive)	71.4 µM (inactive)	–	–	–	25.8 µM (inactive)	24.2 µM (inactive)	30.1 µM (inactive)	–	51.1 µM (inactive)	35.5 µM (inactive)	37.7 µM (inactive)	24.1 µM (inactive)	26.2 µM (inactive)	26 µM (inactive)
O=C(OCc1ccccc1)C(Cc1ccccc1)N(Cc1ccccc1)Cc1ccccc1 (stereo unspecified)	25.8 µM (inactive)	24.1 µM (inactive)	> 100 µM (inactive)	14.4 µM (inactive)	–	> 100 µM (inactive)	35.1 µM (inactive)	84.7 µM (inactive)	28.8 µM (inactive)	37.1 µM (inactive)	46.9 µM (inactive)	> 100 µM (inactive)	5.94 µM (inactive)	> 100 µM (inactive)	53 µM (inactive)	> 100 µM (inactive)	> 100 µM (inactive)	27.7 µM (inactive)	80 µM (inactive)	> 100 µM (inactive)
COC(=O)c1cc(NC2OCC(OC(C)=O)C(OC(C)=O)C2OC(C)=O)nc(SC)c1C(=O)OC (stereo unspecified)	> 100 µM (inactive)	> 100 µM (inactive)	> 100 µM (inactive)	–	> 100 µM (inactive)	> 100 µM (inactive)	> 100 µM (inactive)	> 100 µM (inactive)	> 100 µM (inactive)	> 100 µM (inactive)	–	> 100 µM (inactive)	> 100 µM (inactive)	–	> 100 µM (inactive)	> 100 µM (inactive)	> 100 µM (inactive)	> 100 µM (inactive)	> 100 µM (inactive)	–
CC1=C(C)[C@@]2(C)O[C@@]2(C)O[C@@]2(C)O[C@@]12C	–	> 100 µM (inactive)	> 100 µM (inactive)	> 100 µM (inactive)	> 100 µM (inactive)	> 100 µM (inactive)	–	–	> 100 µM (inactive)	–	–	–	> 100 µM (inactive)	> 100 µM (inactive)	> 100 µM (inactive)	> 100 µM (inactive)	–	> 100 µM (inactive)	> 100 µM (inactive)	> 100 µM (inactive)
Cc1ccc2oc3c(ccc(=O)n3C)c(=O)c2c1	> 100 µM (inactive)	> 100 µM (inactive)	> 100 µM (inactive)	> 100 µM (inactive)	> 100 µM (inactive)	> 100 µM (inactive)	> 100 µM (inactive)	> 100 µM (inactive)	> 100 µM (inactive)	–	> 100 µM (inactive)	> 100 µM (inactive)	> 100 µM (inactive)	> 100 µM (inactive)	> 100 µM (inactive)	> 100 µM (inactive)	> 100 µM (inactive)	> 100 µM (inactive)	> 100 µM (inactive)	> 100 µM (inactive)
Cc1cc(C)cc(Sc2c([N+](=O)[O-])ncn2C)c1	15.6 µM (inactive)	13.8 µM (inactive)	17.2 µM (inactive)	11.2 µM (inactive)	–	14.8 µM (inactive)	18.2 µM (inactive)	13 µM (inactive)	15.4 µM (inactive)	9.98 µM (inactive)	–	6.03 µM (inactive)	13.8 µM (inactive)	23.8 µM (inactive)	16.4 µM (inactive)	25.7 µM (inactive)	14 µM (inactive)	14.6 µM (inactive)	15.5 µM (inactive)	7.28 µM (inactive)
Cc1ccc(S(=O)(=O)N(CC(=O)O)c2ccccc2)cc1	> 100 µM (inactive)	–	> 100 µM (inactive)	> 100 µM (inactive)	–	> 100 µM (inactive)	> 100 µM (inactive)	> 100 µM (inactive)	> 100 µM (inactive)	> 100 µM (inactive)	> 100 µM (inactive)	> 100 µM (inactive)	> 100 µM (inactive)	> 100 µM (inactive)	> 100 µM (inactive)	> 100 µM (inactive)	> 100 µM (inactive)	> 100 µM (inactive)	> 100 µM (inactive)	> 100 µM (inactive)
COC(=O)c1ccccc1/N=C(/NC1CCCCCC1)NS(=O)(=O)c1ccc(C)cc1	> 100 µM (inactive)	> 100 µM (inactive)	89.7 µM (inactive)	> 100 µM (inactive)	99.1 µM (inactive)	> 100 µM (inactive)	> 100 µM (inactive)	> 100 µM (inactive)	> 100 µM (inactive)	> 100 µM (inactive)	> 100 µM (inactive)	> 100 µM (inactive)	> 100 µM (inactive)	> 100 µM (inactive)	> 100 µM (inactive)	> 100 µM (inactive)	> 100 µM (inactive)	> 100 µM (inactive)	> 100 µM (inactive)	–
COc1ccc(OC)c(SC(CC(=O)c2ccccc2)c2ccccc2)c1 (stereo unspecified)	5.08 µM (inactive)	3.66 µM (inactive)	33.7 µM (inactive)	4.91 µM (inactive)	3.14 µM (inactive)	18.6 µM (inactive)	37.1 µM (inactive)	4.69 µM (inactive)	61.4 µM (inactive)	–	15.8 µM (inactive)	4.32 µM (inactive)	13.8 µM (inactive)	20 µM (inactive)	17.9 µM (inactive)	14.2 µM (inactive)	3.73 µM (inactive)	10.2 µM (inactive)	15.6 µM (inactive)	19.8 µM (inactive)
Cc1cc(S(=O)(=O)Nc2nc(Nc3ccccc3)n[nH]2)c(SSc2cc(Cl)c(C)cc2S(=O)(=O)Nc2nc(Nc3ccccc3)n[nH]2)cc1Cl	43.8 µM (inactive)	> 100 µM (inactive)	–	32.6 µM (inactive)	> 10 µM (inactive)	> 100 µM (inactive)	> 100 µM (inactive)	> 100 µM (inactive)	> 100 µM (inactive)	> 100 µM (inactive)	> 10 µM (inactive)	> 10 µM (inactive)	> 100 µM (inactive)	> 100 µM (inactive)	> 100 µM (inactive)	94.8 µM (inactive)	> 100 µM (inactive)	61.4 µM (inactive)	> 100 µM (inactive)	46.8 µM (inactive)
COc1cccc(C2C(C(=O)O)=C(CO)Oc3cc4c(cc32)OCO4)c1OC (stereo unspecified)	> 100 µM (inactive)	–	97.7 µM (inactive)	> 100 µM (inactive)	–	> 100 µM (inactive)	> 100 µM (inactive)	> 100 µM (inactive)	–	> 100 µM (inactive)	–	> 100 µM (inactive)	> 100 µM (inactive)	> 100 µM (inactive)	> 100 µM (inactive)	> 100 µM (inactive)	> 100 µM (inactive)	> 100 µM (inactive)	> 100 µM (inactive)	> 100 µM (inactive)
C1CC2=C(C1)[Se]C(=C1Sc3nsnc3S1)[Se]2	> 100 µM (inactive)	> 100 µM (inactive)	> 100 µM (inactive)	–	> 100 µM (inactive)	> 100 µM (inactive)	> 100 µM (inactive)	> 100 µM (inactive)	> 100 µM (inactive)	> 100 µM (inactive)	–	> 100 µM (inactive)	> 100 µM (inactive)	> 100 µM (inactive)	> 100 µM (inactive)	> 100 µM (inactive)	> 100 µM (inactive)	> 100 µM (inactive)	> 100 µM (inactive)	71.3 µM (inactive)
